Experimental data taken from patent US4393225A, “AI-77 Compounds and pharmaceutically acceptable salts thereof” (Asahi Kasei Kogyo Kabushiki Kaisha, priority 1979, dated 1983).

Tested on: ulcer
Assay: Anti-ulcer test (restraint and water immersion ulcer in rats, i.p.)
Format: in vivo, Male Wistar rats
Settings: Rattus norvegicus, ip; 50 mg/kg i.p.; read-out: % Inhibition of Ulcer
Experimental: The anti-ulcer and anti-edema activity of the compounds was evaluated in efficacy tests described below.
Male Wistar rats weighing about 150 g on average were not fed for 24 hours before the test. Then a solution or suspension of a predetermined concentration of the test compound in physiological saline was administered to them intraperitoneally. One hour after the administration,each rat was restrained in a net cage and submerged in a water both (21° C.) from the tail to xiphistrenun for 6 hours. Test animals were then killed (by dislocation of the cervical vertebrae), the stomach was removed and incised along the curvatura ventriculi major, and the inside wall of the stomach was pathologically examined under microscopic observation. Rats in which the occurrence of an ulceration was substantially not observed were rated O, while others were rated 0.5, 1, 2 or 3, depending on the severity of the ulcer development. The percent inhibition of ulcer was calculated by the following formula: [formula]

Compound	inhibition in vivo at 50 mg/kg
CCCCCCCCC=CCCCCCCCC(=O)NC1CC(=O)OC1C(OC(C)=O)C(=O)NC(CC(C)C)C1Cc2cccc(OC(C)=O)c2C(=O)O1 (stereo not drawn) [IIIa-3-5]	22%
CC(=O)Oc1cccc2c1C(=O)OC(C(CC(C)C)NC(=O)C(OC(C)=O)C1OC(=O)CC1NC(=O)C1CCCO1)C2 (stereo not drawn) [IIIa-3-6]	33%
COC(C)CC(=O)NC1CC(=O)OC1C(OC(C)=O)C(=O)NC(CC(C)C)C1Cc2cccc(OC(C)=O)c2C(=O)O1 (stereo not drawn) [IIIa-3-7]	33%
CC(=O)Oc1cccc2c1C(=O)OC(C(CC(C)C)NC(=O)C(OC(C)=O)C1OC(=O)CC1NC(=O)c1ccc(C)cc1)C2 (stereo not drawn) [IIIa-3-8]	33%
CC(=O)Oc1cccc2c1C(=O)OC(C(CC(C)C)NC(=O)C(OC(C)=O)C1OC(=O)CC1NC(=O)c1ccc(OCCC(C)C)cc1)C2 (stereo not drawn) [IIIa-3-9]	22%
CC(=O)Oc1cccc2c1C(=O)OC(C(CC(C)C)NC(=O)C(OC(=O)C(Cl)(Cl)Cl)C1OC(=O)CC1NC(=O)C(Cl)(Cl)Cl)C2 (stereo not drawn) [IIIa-3-10]	33%
CC(=O)Oc1cccc2c1C(=O)OC(C(CC(C)C)NC(=O)C(O)C1OC(=O)CC1NC(=O)C(C)C)C2 (stereo not drawn) [IIIa-4-2]	44%
CCCCCCCCCCCCCCCCCC(=O)NC1CC(=O)OC1C(O)C(=O)NC(CC(C)C)C1Cc2cccc(OC(C)=O)c2C(=O)O1 (stereo not drawn) [IIIa-4-3]	33%
CCCCCCCCC=CCCCCCCCC(=O)NC1CC(=O)OC1C(O)C(=O)NC(CC(C)C)C1Cc2cccc(OC(C)=O)c2C(=O)O1 (stereo not drawn) [IIIa-4-4]	33%
CC(=O)Oc1cccc2c1C(=O)OC(C(CC(C)C)NC(=O)C(O)C1OC(=O)CC1NC(=O)C1CCCO1)C2 (stereo not drawn) [IIIa-4-5]	33%
COC(C)CC(=O)NC1CC(=O)OC1C(O)C(=O)NC(CC(C)C)C1Cc2cccc(OC(C)=O)c2C(=O)O1 (stereo not drawn) [IIIa-4-6]	44%
CC(=O)Oc1cccc2c1C(=O)OC(C(CC(C)C)NC(=O)C(O)C1OC(=O)CC1NC(=O)c1ccc(C)cc1)C2 (stereo not drawn) [IIIa-4-7]	33%
CC(=O)Oc1cccc2c1C(=O)OC(C(CC(C)C)NC(=O)C(O)C1OC(=O)CC1NC(=O)c1ccc(OCCC(C)C)cc1)C2 (stereo not drawn) [IIIa-4-8]	33%
CC(C)CC(NC(=O)C(O)C1OC(=O)CC1NC(=O)C(Cl)(Cl)Cl)C1Cc2cccc(OC(=O)C(Cl)(Cl)Cl)c2C(=O)O1 (stereo not drawn) [IIIa-4-9]	33%
CCOc1cccc2c1C(=O)OC(C(CC(C)C)NC(=O)C(O)C1OC(=O)CC1NC(C)=O)C2 (stereo not drawn) [IIIa-5-1]	44%
CCOc1cccc2c1C(=O)OC(C(CC(C)C)NC(=O)C(O)C1OC(=O)CC1NC(=O)CC(C)C)C2 (stereo not drawn) [IIIa-5-2]	44%
CCCCOc1cccc2c1C(=O)OC(C(CC(C)C)NC(=O)C(O)C1OC(=O)CC1NC(C)=O)C2 (stereo not drawn) [IIIa-5-3]	44%
CC(C)COc1cccc2c1C(=O)OC(C(CC(C)C)NC(=O)C(O)C1OC(=O)CC1NC(=O)C(C)C)C2 (stereo not drawn) [IIIa-5-4]	33%
COc1cccc2c1C(=O)OC(C(CC(C)C)NC(=O)C(O)C1OC(=O)CC1NC(C)=O)C2 (stereo not drawn) [IIIa-5-5]	44%
CCCCCCCCCCCCCCCCCC(=O)NC1CC(=O)OC1C(O)C(=O)NC(CC(C)C)C1Cc2cccc(OCCCCCCC)c2C(=O)O1 (stereo not drawn) [IIIa-5-6]	33%
COc1cccc2c1C(=O)OC(C(CC(C)C)NC(=O)C(O)C1OC(=O)CC1NC(=O)C(Cl)(Cl)Cl)C2 (stereo not drawn) [IIIa-5-7]	44%
CCCCCCCCC=CCCCCCCCCOc1cccc2c1C(=O)OC(C(CC(C)C)NC(=O)C(O)C1OC(=O)CC1NC(C)=O)C2 (stereo not drawn) [IIIa-5-8]	33%
CCCCCCCCCCCCOc1cccc2c1C(=O)OC(C(CC(C)C)NC(=O)C(O)C1OC(=O)CC1NC(C)=O)C2 (stereo not drawn) [IIIa-5-9]	33%
CC(=O)NC1CC(=O)OC1C(O)C(=O)NC(CC(C)C)C1Cc2cccc(OCC(C)C)c2C(=O)O1 (stereo not drawn) [IIIa-5-10]	44%
CCCCCCCCOc1cccc2c1C(=O)OC(C(CC(C)C)NC(=O)C(O)C1OC(=O)CC1NC(C)=O)C2 (stereo not drawn) [IIIa-5-11]	44%
CCCCCCCCCCCCCCCCCCOc1cccc2c1C(=O)OC(C(CC(C)C)NC(=O)C(O)C1OC(=O)CC1NC(=O)CCCCCC)C2 (stereo not drawn) [IIIa-5-12]	33%
CCOc1cccc2c1C(=O)OC(C(CC(C)C)NC(=O)C(O)C1OC(=O)CC1NC(=O)C(Cl)(Cl)Cl)C2 (stereo not drawn) [IIIa-5-13]	33%
CCOc1cccc2c1C(=O)OC(C(CC(C)C)NC(=O)C(O)C1OC(=O)CC1NC(=O)C13CC4CC(CC(C4)C1)C3)C2 (stereo not drawn) [IIIa-5-15]	33%
CCOc1cccc2c1C(=O)OC(C(CC(C)C)NC(=O)C(O)C1OC(=O)CC1NC(=O)c1ccccc1)C2 (stereo not drawn) [IIIa-5-16]	33%
CCOc1cccc2c1C(=O)OC(C(CC(C)C)NC(=O)C(O)C1OC(=O)CC1NC(=O)c1ccc3ccccc3c1)C2 (stereo not drawn) [IIIa-5-17]	33%
